In US20240294495A1, “COMPOUNDS THAT MEDIATE PROTEIN DEGRADATION AND METHODS OF USE THEREOF” (Monte Rosa Therapeutics, Inc., priority 2021, published 2024):

Assays:
CRBN-DDB1 = CRBN-DDB1 (Homo sapiens, UniProt Q96SW2); experiment: Compound binding to CRBN by HTRF assay; details: CRBN-DDB1 2.5 nM, Cy5-Thalidomide 100 nM probe, 30 min incubation; read-out: HTRF Class (Cereblon binding, HTRF IC50)
Method: Compound activity was monitored in a Homogenous Time-Resolved Fluorescence (HTRF) assay using 1-[5-({2-[2-(2-{[2-(2,6-dioxopiperidin-3-yl)-1,3-dioxo-2,3-dihydro-1H-isoindol-4-yl]oxy}acetamido)ethoxy]ethyl}carbamoyl)pentyl]-3,3-dimethyl-2-[(1E,3E)-5-[(2E)-1,3,3-trimethyl-5-sulfo-2,3-dihydro-1H-indol-2-ylidene]penta-1,3-dien-1-yl]-3H-indol-1-ium-5-sulfonate as a fluorescent probe. Biochemical assays were conducted in Greiner white 384 well HiBase plates (Cat. No 784075-25) in 10 μL total volume. A one pot detection solution of CRBN-DDB1 (2.5 nM), Anti-His Terbium Cryptate Gold (1×, PerkinElmer Cat. #: 61HI2TLB), and Cy5-Thalidomide (100 nM, Tenova Cat.: T52461) was prepared in 20 mM HEPES, 20 mM NaCl, 0.2 mM TCEP, 0.2 mM EDTA, and 0.005% Tween20 was dispensed to each assay plate. Compounds were stored in dry, ambient temperatures at 10 mM. A 10-point, 1:3 dilution series was prepared from 10 mM stock concentrations in Echo-compatible LDV plates. 10 nL of each compound dilution series was dispensed into assays wells using an Echo 650 (Labcyte inc. USA). 10 nL of 10 mM Lenalidomide was transferred into the active-control wells for the assay and 10 nL of DMSO was transferred into the neutral-control wells. The assay was then allowed to incubate for 30 min at ambient temperature after transferring compound. Plate measurements were taken on a Pherastar FSX (BMG Labtech, Germany) using the HTRF Red filter (Ex. 337 nm, em1: 620 nm, em2: 665 nm) (Flashes: 50, Integration time: 60-400 us, Z-height: 10 mm, Ratio-multiplier: 10,000). The HTRF signal was then subsequently normalized to the neutral and active controls. Analysis and IC50 values were derived using KNIME analytics (KNIME Zurich) transformation and fitting within Collaborative Drug Discovery (Collaborative Drug Discovery USA). Ki was derived from the geometric mean of the IC50 values using the Cheng-Prustoff transformation.
(§1) In Table 2, each compound is assigned a class (HTRF class) indicating the ability for Cereblon binding by means of their HTRF IC50 values according to Example 3: A, B or C. According to the code, A represents an IC50 value of <100 nM, B represents an IC50 value>100 nM and <1000 nM, C represents an IC50 value>1000 nM. IF Class assigns each compound a code indicating the ability for GSPT1 degradation: A, B or C. According to the code, A represents a DC50 value of <30 nM, B represents a DC50 value>30 nM and <300 nM and C represents a DC50 value of >300 nM.

GSPT1 = target: T1, GSPT1 (Homo sapiens, UniProt P15170+Q96SW2); experiment: Immunofluorescence assay for GSPT1 degradation in CAL-51 cells; assay type: cell-based; details: 6 h treatment, read-out: IF Class (GSPT1 degradation, DC50)
T1 construct: CAL-51 cells were purchased from DSMZ (cat. Number ACC302); endogenous in cells; host or cells: CAL-51 (DSMZ ACC302)
Method: The representative compounds were tested in an immunofluorescence assay for their activity to degrade GSPT1. CAL-51 cells were purchased from DSMZ (cat. Number ACC302), sub-cultured in 90% Dulbecco's MEM (4.5 g/L glucose, Gibco 11965)+10% heat inactivated FBS (BioConcept, 2-01F136I) and incubated at 37° C., 5% CO2. For the assay imaging microtiter plate Cell Carrier 96 Ultra (Perkin Elmer 6055302) were pre-coated with Fibronectin (Sigma F085, 30 μl at 0.2 μg/mL) in PBS (100 μL, Gibco 14190) for 45 min at room temperature, rinsed with PBS and CAL-51 cells (30K cells/well) were plated and let to adhere overnight. Cells were treated with compounds typically using a serial dilution ranging from 30 μM to 0.1 nM for 6 h. Compounds were stored at 10 mM DMSO stocks. Vehicle (DMSO), positive (CC-885, 10 μM) and rescue controls (positive control plus 0.2 μM bortezomib) were also included at this stage. Cells were subsequently rinsed with PBS and fixed in 10% Formalin solution (50 μl, Sigma HT5011)) for 20 min at room temperature. Following three consecutive PBS washes (100 μL), cells were permeabilized in 0.1% Triton X-100 in PBS (Sigma 93443, 50 μl) for 15 min at room temperature. Following three further PBS washes, 50 μl blocking buffer (1% BSA, Sigma A4503, in PBS) was added for 45 min for signal-to noise reduction. Primary antibody (human GSPT1, Sigma HPA052488) was diluted in blocking buffer (dil.1/300, 35 μL/well) and incubated with the cells overnight at 4° C. After three PBS washes, Alexa-fluor 488 coupled secondary antibodies (Invitrogen, A32731, dil.1/1000), Alexa-fluor 647-Phalloidin (Invitrogen, A22287, dil.1/200) and DAPI (Thermo, #62248, dil.1/1000) were diluted in blocking buffer and incubated with the samples for 2 h at room temperature. After three final PBS washes, samples were conserved in 100 μL PBS in the dark, until measurement. Image acquisition was performed on the Operetta High-Content Imager (Perkin-Elmer). Fluorescence intensity of […] (GSPT1), Alexa-Fluor 647 (Actin) and DAPI (Nucleus) were measured. For the determination of GSPT1 DC50 values, a custom algorithm implemented in the PerkinElmer image analysis software Harmony-Acapella® was developed. After user-defined setting of adjustment parameters, the analysis was run identically without human intervention for all image fields. DAPI staining of the nuclei was used to determine the location of cells using standard nuclei detection modules. Segmentation artifacts were removed by threshold-based filters for area, roundness and intensity. The outline of the cells was determined analogously from the sum of the normalized, smoothed DAPI and Actin channel, starting from each nucleus. The Alexa-Fluor 488 (GSPT1) signal intensity in each cell was finally measured, in order to obtain a Mean intensity per cell. GSPT1 degradation (DC50) was calculated after normalization to controls and data import in CDD vault Database, using non-linear regression.
as §1

T1 sequence (P15170 whole entry): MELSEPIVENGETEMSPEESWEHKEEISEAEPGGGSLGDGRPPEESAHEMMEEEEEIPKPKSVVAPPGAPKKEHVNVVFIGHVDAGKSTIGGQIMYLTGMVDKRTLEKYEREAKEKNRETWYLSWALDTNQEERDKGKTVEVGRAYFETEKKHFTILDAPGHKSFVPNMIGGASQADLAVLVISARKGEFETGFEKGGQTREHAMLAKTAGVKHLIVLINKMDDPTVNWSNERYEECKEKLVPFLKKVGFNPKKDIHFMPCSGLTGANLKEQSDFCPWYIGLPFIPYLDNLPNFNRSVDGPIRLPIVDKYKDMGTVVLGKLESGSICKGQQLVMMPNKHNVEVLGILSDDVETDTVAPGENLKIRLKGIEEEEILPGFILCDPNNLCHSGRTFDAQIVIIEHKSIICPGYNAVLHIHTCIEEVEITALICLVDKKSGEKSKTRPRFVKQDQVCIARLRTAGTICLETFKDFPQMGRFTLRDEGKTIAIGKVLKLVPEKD
T1 sequence (Q96SW2 whole entry): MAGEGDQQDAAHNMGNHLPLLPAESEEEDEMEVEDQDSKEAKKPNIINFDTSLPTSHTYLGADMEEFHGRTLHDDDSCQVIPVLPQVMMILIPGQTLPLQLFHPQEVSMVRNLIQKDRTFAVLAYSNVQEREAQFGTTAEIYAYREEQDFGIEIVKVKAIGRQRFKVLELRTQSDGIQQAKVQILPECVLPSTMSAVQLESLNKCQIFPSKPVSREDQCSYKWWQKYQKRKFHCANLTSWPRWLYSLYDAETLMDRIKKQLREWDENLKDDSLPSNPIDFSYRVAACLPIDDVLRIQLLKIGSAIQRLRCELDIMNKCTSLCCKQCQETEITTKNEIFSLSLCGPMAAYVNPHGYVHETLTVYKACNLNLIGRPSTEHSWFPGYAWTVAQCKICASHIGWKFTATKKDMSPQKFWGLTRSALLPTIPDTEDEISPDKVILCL
T1 sequence (Q16531 2-1140 partner limits assumed): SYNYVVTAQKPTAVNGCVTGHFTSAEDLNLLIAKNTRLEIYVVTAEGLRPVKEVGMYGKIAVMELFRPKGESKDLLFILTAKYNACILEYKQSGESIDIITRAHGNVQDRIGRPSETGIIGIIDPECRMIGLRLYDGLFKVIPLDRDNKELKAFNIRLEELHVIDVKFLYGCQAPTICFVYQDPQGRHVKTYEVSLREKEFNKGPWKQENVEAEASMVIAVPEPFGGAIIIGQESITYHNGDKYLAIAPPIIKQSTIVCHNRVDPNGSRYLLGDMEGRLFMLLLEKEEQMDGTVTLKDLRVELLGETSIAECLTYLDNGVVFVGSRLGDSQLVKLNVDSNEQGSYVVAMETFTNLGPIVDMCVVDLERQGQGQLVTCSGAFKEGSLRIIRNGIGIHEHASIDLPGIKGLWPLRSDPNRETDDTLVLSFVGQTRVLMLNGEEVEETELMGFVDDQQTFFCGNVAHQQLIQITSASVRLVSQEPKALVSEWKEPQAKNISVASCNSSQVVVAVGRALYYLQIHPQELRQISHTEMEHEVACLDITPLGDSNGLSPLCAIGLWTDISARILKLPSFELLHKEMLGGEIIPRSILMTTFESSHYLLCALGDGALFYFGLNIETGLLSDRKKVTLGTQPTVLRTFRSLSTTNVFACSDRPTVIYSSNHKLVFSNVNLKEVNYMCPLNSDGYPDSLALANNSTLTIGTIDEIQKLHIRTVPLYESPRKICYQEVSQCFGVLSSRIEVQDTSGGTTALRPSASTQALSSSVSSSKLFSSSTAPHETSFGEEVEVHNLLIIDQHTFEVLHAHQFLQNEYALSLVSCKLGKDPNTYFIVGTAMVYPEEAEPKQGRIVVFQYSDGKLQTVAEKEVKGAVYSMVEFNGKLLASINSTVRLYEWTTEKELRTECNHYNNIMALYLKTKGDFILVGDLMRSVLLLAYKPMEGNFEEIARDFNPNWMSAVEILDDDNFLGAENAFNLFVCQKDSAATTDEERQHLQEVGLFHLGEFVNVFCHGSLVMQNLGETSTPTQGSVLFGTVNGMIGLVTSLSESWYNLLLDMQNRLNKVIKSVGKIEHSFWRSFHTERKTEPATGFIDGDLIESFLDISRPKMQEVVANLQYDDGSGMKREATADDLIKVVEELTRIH
Sequence of CRBN-DDB1 (Q96SW2 whole entry): as the sequence (Q96SW2 whole entry) above
Sequence of CRBN-DDB1 (Q16531 whole entry partner): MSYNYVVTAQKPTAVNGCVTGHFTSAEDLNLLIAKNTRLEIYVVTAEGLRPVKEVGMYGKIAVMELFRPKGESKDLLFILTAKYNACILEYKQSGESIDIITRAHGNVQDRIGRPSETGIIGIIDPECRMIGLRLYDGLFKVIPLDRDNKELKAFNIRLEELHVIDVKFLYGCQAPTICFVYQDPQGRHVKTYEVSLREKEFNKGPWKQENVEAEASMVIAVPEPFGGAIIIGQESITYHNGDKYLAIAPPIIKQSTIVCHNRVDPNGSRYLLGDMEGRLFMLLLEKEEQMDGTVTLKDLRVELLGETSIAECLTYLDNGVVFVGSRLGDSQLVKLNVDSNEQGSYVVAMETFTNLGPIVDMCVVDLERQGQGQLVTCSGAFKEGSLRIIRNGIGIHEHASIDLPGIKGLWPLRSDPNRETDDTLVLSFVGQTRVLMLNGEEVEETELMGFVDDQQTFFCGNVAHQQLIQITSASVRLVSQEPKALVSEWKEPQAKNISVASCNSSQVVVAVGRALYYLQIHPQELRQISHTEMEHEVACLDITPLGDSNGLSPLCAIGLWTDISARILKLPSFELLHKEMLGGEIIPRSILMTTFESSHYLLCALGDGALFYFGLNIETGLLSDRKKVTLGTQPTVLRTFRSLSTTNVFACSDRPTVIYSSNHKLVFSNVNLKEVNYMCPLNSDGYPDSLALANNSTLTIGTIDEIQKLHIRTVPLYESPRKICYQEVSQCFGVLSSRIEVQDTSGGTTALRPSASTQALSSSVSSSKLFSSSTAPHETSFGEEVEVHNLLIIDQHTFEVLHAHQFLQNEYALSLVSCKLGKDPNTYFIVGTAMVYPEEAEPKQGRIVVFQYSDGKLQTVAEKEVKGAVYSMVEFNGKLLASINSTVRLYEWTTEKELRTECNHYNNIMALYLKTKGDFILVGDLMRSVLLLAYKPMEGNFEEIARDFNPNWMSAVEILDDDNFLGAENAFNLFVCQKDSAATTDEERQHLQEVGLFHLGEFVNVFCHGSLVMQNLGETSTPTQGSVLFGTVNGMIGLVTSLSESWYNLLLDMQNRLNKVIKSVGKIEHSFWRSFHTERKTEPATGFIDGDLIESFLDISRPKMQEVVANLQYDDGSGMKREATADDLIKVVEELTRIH

Row | IC50 (CRBN-DDB1) | DC50 (GSPT1) | Compound
1 | < 100 nM | > 300 nM | O=C1CCC(c2c(F)cc(N3CC(NC(=O)Cc4ccc(Cl)cn4)C3)cc2F)C(=O)N1 (stereo not drawn) [Compound 10, 2-(5-chloropyridin-2-yl)-N-(1-(4-(2,6-dioxopiperidin-3-yl)-3,5-difluorophenyl)azetidin-3-yl)acetamide]
2 | 100 to 1000 nM | > 300 nM | Cc1cc(F)cc(CC(=O)NC2CN(c3cc(F)c(C4CCC(=O)NC4=O)c(F)c3)C2)c1 (stereo not drawn) [Compound 7, N-(1-(4-(2,6-dioxopiperidin-3-yl)-3,5-difluorophenyl)azetidin-3-yl)-2-(3-fluoro-5-methylphenyl)acetamide]
3 | 100 to 1000 nM | > 300 nM | CC(C)(C)C12CC(C(=O)NC3CN(c4cc(F)c(C5CCC(=O)NC5=O)c(F)c4)C3)(C1)C2 (stereo not drawn) [Compound 23, 3-(tert-butyl)-N-(1-(4-(2,6-dioxopiperidin-3-yl)-3,5-difluorophenyl)azetidin-3-yl) bicyclo[1.1.1]pentane-1-carboxamide]
4 | 100 to 1000 nM | > 300 nM | Cc1cc(CC(=O)NC2CN(c3cc(F)c(C4CCC(=O)NC4=O)c(F)c3)C2)ncc1Cl (stereo not drawn) [Compound 22, 2-(5-chloro-4-methylpyridin-2-yl)-N-(1-(4-(2,6-dioxopiperidin-3-yl)-3,5-difluorophenyl)azetidin-3-yl)acetamide]
5 | 100 to 1000 nM | 30 to 300 nM | Cc1cc(Cl)ccc1CC(=O)NC1CN(c2cc(F)c(C3CCC(=O)NC3=O)c(F)c2)C1 (stereo not drawn) [Compound 52, 2-(4-chloro-2-methylphenyl)-N-(1-(4-(2,6-dioxopiperidin-3-yl)-3,5-difluorophenyl)azetidin-3-yl)acetamide]
6 | 100 to 1000 nM | > 300 nM | N#Cc1ccc(CC(=O)NC2CN(c3cc(F)c(C4CCC(=O)NC4=O)c(F)c3)C2)c(Cl)c1 (stereo not drawn) [Compound 1, 2-(2-chloro-4-cyanophenyl)-N-(1-(4-(2,6-dioxopiperidin-3-yl)-3,5-difluorophenyl)azetidin-3-yl)acetamide]
7 | 100 to 1000 nM | > 300 nM | O=C1CCC(c2c(F)cc(N3CC(NC(=O)Cc4ncc(Cl)cc4F)C3)cc2F)C(=O)N1 (stereo not drawn) [Compound 15, 2-(5-chloro-3-fluoropyridin-2-yl)-N-(1-(4-(2,6-dioxopiperidin-3-yl)-3,5-difluorophenyl)azetidin-3-yl)acetamide]
8 | 100 to 1000 nM | > 300 nM | O=C1CCC(c2c(F)cc(N3CC(NC(=O)Cc4cc(F)cc(F)c4)C3)cc2F)C(=O)N1 (stereo not drawn) [Compound 8, 2-(3,5-difluorophenyl)-N-(1-(4-(2,6-dioxopiperidin-3-yl)-3,5-difluorophenyl)azetidin-3-yl) acetamide]
9 | 100 to 1000 nM | 30 to 300 nM | Cc1cc(CC(=O)NC2CN(c3cc(F)c(C4CCC(=O)NC4=O)c(F)c3)C2)ccc1F (stereo not drawn) [Compound 30, N-(1-(4-(2,6-dioxopiperidin-3-yl)-3,5-difluorophenyl)azetidin-3-yl)-2-(4-fluoro-3-methylphenyl)acetamide]
10 | 100 to 1000 nM | 30 to 300 nM | O=C1CCC(c2c(F)cc(N3CC(NC(=O)Cc4c(F)cc(Cl)cc4F)C3)cc2F)C(=O)N1 (stereo not drawn) [Compound 16, 2-(4-chloro-2,6-difluorophenyl)-N-(1-(4-(2,6-dioxopiperidin-3-yl)-3,5-difluorophenyl)azetidin-3-yl) acetamide]
11 | 100 to 1000 nM | 30 to 300 nM | O=C1CCC(c2c(F)cc(N3CC(NC(=O)Cc4cccc(Cl)c4)C3)cc2F)C(=O)N1 (stereo not drawn) [Compound 32, 2-(3-chlorophenyl)-N-(1-(4-(2,6-dioxo-3-piperidyl)-3,5-difluoro-phenyl)azetidin-3-yl)acetamide]
12 | 100 to 1000 nM | < 30 nM | Cc1cc(F)c(NC(=O)CC2CN(c3cc(F)c(C4CCC(=O)NC4=O)c(F)c3)C2)cc1Cl (stereo not drawn) [Compound 5, N-(5-chloro-2-fluoro-4-methylphenyl)-2-(1-(4-(2,6-dioxopiperidin-3-yl)-3,5-difluorophenyl)azetidin-3-yl)acetamide]
